Assay in all cases: NCI-60 cell line screen, 48 h
Experiment [1] relates to EKVX NSCLC.
For experiment [2], the system named is SF-295 CNS.
Experiment [3] relates to UO-31 renal.
Experiment [4] concerns CAKI-1 renal.
Experiment [5] relates to IGROV1 ovarian.
The subject of experiment [6] is HOP-62 NSCLC.
Experiment [7] relates to MCF7 breast.

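Where inhibition never reached the appropriate level, the endpoint shown equals the highest concentration tested. Otherwise, values were interpolated linearly from a five-concentration, 48-hour dose response in 96-well plates. TGI is the concentration that stops growth completely.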 Where a SMILES comes first, the peptide text is derived from it. The star is where a group is joined. Boc = CC(C)(C)OC(=O)*

For `O=C(/C=C/c1ccc(O)c(O)c1)OCCCc1ccccc1`, the TGI in experiment [1] stood at 63.8 µM; in experiment [2], 38.9 µM; in experiment [3] it was 14.8 µM; in experiment [4], 47 µM; in experiment [5], 12.1 µM; in experiment [6], 26.6 µM. For the same compound, in experiment [7], the TGI was 26.8 µM.
As to `CCCSc1ccc2[nH]c(N3C(=O)/C(=C/c4ccco4)N=C3c3ccccc3)cc2c1`, the TGI in experiment [1], in experiment [3], in experiment [4], in experiment [5], in experiment [6] and in experiment [7] was more than 50 µM each time.
As for `CCC12CCCN(Cc3ccccc3)C1c1c([nH]c3ccccc13)C(C(=O)OC)C2` (stereo unspecified), the TGI in experiment [2], in experiment [4], in experiment [5], in experiment [6] and in experiment [7] was more than 10 µM each time.
Turning to `C1CCC2(CC1)O[C@@H]1[C@@H](O2)[C@@H](O[C@H]2O[C@@H]3COC4(CCCCC4)O[C@H]3[C@@H]3OC4(CCCCC4)O[C@@H]23)O[C@@H]2COC3(CCCCC3)O[C@@H]12`, the TGI in experiment [1], in experiment [2], in experiment [3], in experiment [4], in experiment [5] and in experiment [6] was more than 100 µM in each case. In experiment [7], this compound showed a TGI of more than 100 µM.
Consider `CC(=O)OCCCOCn1c(Cc2ccccc2)c(C)c(=O)[nH]c1=O`, for which the TGI in experiment [1], in experiment [2], in experiment [3], in experiment [4], in experiment [5] and in experiment [6] was more than 100 µM in each case. The compound also came in with a TGI in experiment [7] of more than 100 µM.
With `Cc1[nH]c2c(c1C)S(=O)(=O)c1cc3ccccc3nc1N2`, the TGI in experiment [1] was more than 100 µM; in experiment [2] it was more than 100 µM; in experiment [3] it was 56.9 µM; in experiment [4], more than 100 µM; in experiment [5] it was 28 µM; in experiment [6] it was 39.8 µM. In experiment [7], this compound registered a TGI of more than 100 µM.
As for `CCCCC(C#N)(OP1(=O)OC(c2ccccc2)C(C)N1C)c1ccccc1` (stereo unspecified), the TGI in experiment [1] worked out at 39.8 µM; in experiment [2] it was 32.3 µM; in experiment [3], 31.4 µM; in experiment [4] it was 42.5 µM; in experiment [5] it was 32.3 µM; in experiment [6], 38.7 µM. This compound also returned a TGI in experiment [7] of 39 µM.
Turning to `COC(=O)C(Cc1c[nH]c2ccccc12)NC(=O)C(Cc1c[nH]c2ccccc12)NC(=O)C(Cc1c[nH]c2ccccc12)NC(=O)C(Cc1c[nH]c2ccccc12)NC(=O)C(Cc1c[nH]c2ccccc12)NC(=O)C(Cc1c[nH]c2ccccc12)NC(=O)OC(C)(C)C` (stereo unspecified) (Boc-WWWWWW-OMe; configuration not given here), the TGI in experiment [3], in experiment [4], in experiment [5], in experiment [6] and in experiment [7] was more than 100 µM in each case.
For the compound `COC(=O)C1Cc2c(OC)ccc(OC)c2CC(C(=O)OC)C1=O` (stereo unspecified), the TGI in experiment [1], in experiment [2], in experiment [3], in experiment [4], in experiment [5] and in experiment [6] was more than 100 µM in each case. This compound returned a TGI in experiment [7] of more than 100 µM.
Regarding `OC(c1cc2ccccc2o1)c1cc2ccccc2s1` (stereo unspecified), the TGI in experiment [1], in experiment [2], in experiment [3], in experiment [4], in experiment [5] and in experiment [6] was more than 10 µM each time. The compound further showed a TGI in experiment [7] of more than 10 µM.
Take `COc1ccc2nc3ccc(OC)cc3c(SCCO)c2c1`: the TGI in experiment [1] was more than 100 µM; in experiment [2] it was more than 100 µM; in experiment [3], more than 100 µM; in experiment [4], more than 100 µM; in experiment [5] it was more than 51.1 µM; in experiment [6], more than 100 µM. For the same compound, the TGI in experiment [7] was more than 62.3 µM.
On to `CC(O)c1cc2c(s1)C(=O)c1sccc1C2=O` (stereo unspecified), for which the TGI in experiment [1] came to 0.674 µM; in experiment [2], 0.191 µM; in experiment [3], 0.359 µM; in experiment [4] it was 1.19 µM; in experiment [5] it was 0.725 µM; in experiment [6], 0.406 µM. The same compound showed a TGI in experiment [7] of 1.89 µM.
Turning to `CCOC(=O)c1cc(-c2cc(OC)c(OC)c([N+](=O)[O-])c2)c([N+](=O)[O-])n1C`, the TGI in experiment [1], in experiment [2], in experiment [3] and in experiment [5] was more than 10 µM each time.
Turning to `Nc1ncnc2c1nnn2C1C=CC(COS(N)(=O)=O)C1` (stereo unspecified), the TGI was more than 100 µM in experiment [1]; more than 100 µM in experiment [2]; 49 µM in experiment [3]; 12.2 µM in experiment [4]; more than 100 µM in experiment [5]; more than 100 µM in experiment [6]. The same compound came in with a TGI in experiment [7] of more than 100 µM.
With `COC(=O)/C(=C\Nc1cccc(C)n1)S(=O)(=O)c1ccc(C)cc1`, the TGI in experiment [2], in experiment [3], in experiment [5], in experiment [6] and in experiment [7] was more than 100 µM each time.
In the case of `CCCN1C(=O)CC(C)N(Cc2ccccc2Cl)C1=S` (stereo unspecified), the TGI in experiment [1] was 93.7 µM; in experiment [2], more than 100 µM; in experiment [4] it was more than 100 µM; in experiment [5], more than 100 µM; in experiment [6], more than 100 µM; in experiment [7], 78.4 µM.
Regarding `C[n+]1c(-c2ccc(/C=N/NC(=N)N/N=C/c3ccc(-c4cn5cc(Cl)ccc5[n+]4C)cc3)cc2)cn2cc(Cl)ccc21`, the TGI in experiment [1], in experiment [2], in experiment [3], in experiment [5], in experiment [6] and in experiment [7] was more than 100 µM throughout.
Take `COC(=O)/C=C\n1c(C)cc(=O)[nH]c1=O`: the TGI in experiment [1] was more than 100 µM; in experiment [2], more than 100 µM; in experiment [3] it was more than 100 µM; in experiment [5] it was more than 100 µM; in experiment [6], more than 100 µM; in experiment [7], 89 µM.
For the compound `CCCCCCCCOC1C(O)C(O)C(O)C(O)C12CO2` (stereo unspecified), the TGI in experiment [2], in experiment [3], in experiment [4], in experiment [5], in experiment [6] and in experiment [7] was more than 100 µM in each case.
As to `CC(=O)[C@@]1(C)CC2(CCN(C)CC2)OC1C` (stereo partly specified), the TGI in experiment [1], in experiment [2], in experiment [3], in experiment [4], in experiment [5] and in experiment [6] was more than 100 µM in each case.
For `O=C(c1ccco1)N1CCCN(C(=O)c2ccco2)C1=S`, the TGI in experiment [1], in experiment [3], in experiment [4], in experiment [5], in experiment [6] and in experiment [7] was more than 100 µM each time.
Consider `Cc1cnc2sn(-c3ccc(Oc4ccccc4)cc3)c(=O)c2c1`, for which the TGI in experiment [1] came to 27.7 µM; in experiment [2] it was 39.3 µM; in experiment [3], 42.8 µM; in experiment [5], 45.5 µM; in experiment [6] it was 36.7 µM; in experiment [7], 75.4 µM.
With `O=C1CC2(c3ccccc3)ON=C(c3ccccc3)N2c2ccccc2N1` (stereo unspecified), the TGI in experiment [1], in experiment [2], in experiment [3], in experiment [5], in experiment [6] and in experiment [7] was more than 100 µM each time.
`O=C(NCCC1([N+](=O)[O-])CCN(C(=O)c2ccccc2)CC1)c1ccccc1`: the TGI in experiment [1], in experiment [2], in experiment [3], in experiment [4] and in experiment [5] was more than 100 µM each time.
Take `CC1(C)N=C(C(N)=O)c2ncn(N)c2N1`: the TGI in experiment [1], in experiment [2], in experiment [4], in experiment [5], in experiment [6] and in experiment [7] was more than 100 µM in each case.
On to `Cc1c(Cl)nc(Nc2nc3ccccc3[nH]2)nc1Cl`, for which the TGI in experiment [1] is 84.5 µM; in experiment [2], more than 100 µM; in experiment [3] it was more than 100 µM; in experiment [4], 71.9 µM; in experiment [5] it was more than 100 µM.
Turning to `O=S(=O)(c1ccccc1)n1c2ccc(Br)cc2c2nc3ccccc3nc21`, the TGI in experiment [2], in experiment [3], in experiment [4], in experiment [5] and in experiment [6] was more than 100 µM each time.
With `O=CN1CCN(C(=O)c2ccc(Cl)cc2Cl)C1=S`, the TGI in experiment [1], in experiment [2], in experiment [4], in experiment [5], in experiment [6] and in experiment [7] was more than 100 µM in each case.
On to `N/C(=N\S(=O)(=O)c1ccc(S(=O)(=O)c2ccccc2)s1)Nc1ccc(Cl)cc1`, for which the TGI in experiment [1] stood at 40.4 µM; in experiment [2] it was 47 µM; in experiment [3], 40 µM; in experiment [5], 31.7 µM; in experiment [6], 39.3 µM; in experiment [7], 35.6 µM.

For the origin of these results see PubChem BioAssay (NCI).
